We go through two compounds from patent US20250326815A1, “STAPLE-CONTAINING POLYPEPTIDES AND APPLICATION THEREOF” (Soter Biopharma Pte. Ltd., priority 2021, published 2025).

Data set [1] concerns the target T1, GCGR (Homo sapiens, UniProt P47871).
T1 construct: host or cells: HEK293
Put plainly: In vitro agonistic activity on GCGR (cAMP assay). It counts as cell-based. The following applies: HEK293 cell line; for Agonistic activity on GCGR Max Activity (%): Max Dose 100 nM. The method, then: (§1) The cell lines were constructed by Shanghai WuXi AppTec.
(§2) The compounds to be assayed were serially diluted 4-fold with Bravo to obtain 10 concentrations, with a starting concentration of 30 μM.
(§3) 1) 100 nL of the compound was transferred to an OptiPlate-384 plate using Echo.
(§4) 2) The OptiPlate-384 plate was centrifuged at 1000 rpm for 5 seconds.
(§5) 1) A GLP-1R/GIPR/GCGR cell cryopreservation tube was quickly placed in warm water at 37° C. to thaw.
(§6) 2) The cell suspension was transferred to a 15 mL centrifuge tube, and gently washed with 10 ml of HBSS.
(§7) 3) The centrifuge tube was centrifuged at 1000 rpm at room temperature for 1 minute.
(§8) 4) The supernatant was discarded.
(§9) 5) The cells at the bottom were gently dispersed and gently washed with 10 ml of HBSS. The cells were centrifuged and sedimented, and finally resuspended with the assay buffer.
(§10) 6) Vi-cell was used to measure the cell density and viability.
(§11) 7) The concentration of GLP-1R/GIPR/GCGR cells was diluted to 2.0*105/mL with the assay buffer.
(§12) 8) […] of the diluted cell suspension was transferred to the OptiPlate-384 plate.
(§13) 9) The plate was incubated at room temperature for 30 minutes.
(§14) 1) 10 μL of 800 nM gradient diluted cAMP standard was added into an empty well of the OptiPlate-384 plate.
(§15) 2) 10 μL of cAMP assay reagent was added.
(§16) 3) The OptiPlate-384 plate was covered with a TopSeal-A film and incubated at room temperature for 60 minutes.
(§17) The TopSeal-A was peeled off and the plate was read on the EnVision.

Data set [2] has as its target T2, GIPR (Homo sapiens, UniProt P48546).
T2 construct: host or cells: CHO
T2 sequence (P48546 22-466): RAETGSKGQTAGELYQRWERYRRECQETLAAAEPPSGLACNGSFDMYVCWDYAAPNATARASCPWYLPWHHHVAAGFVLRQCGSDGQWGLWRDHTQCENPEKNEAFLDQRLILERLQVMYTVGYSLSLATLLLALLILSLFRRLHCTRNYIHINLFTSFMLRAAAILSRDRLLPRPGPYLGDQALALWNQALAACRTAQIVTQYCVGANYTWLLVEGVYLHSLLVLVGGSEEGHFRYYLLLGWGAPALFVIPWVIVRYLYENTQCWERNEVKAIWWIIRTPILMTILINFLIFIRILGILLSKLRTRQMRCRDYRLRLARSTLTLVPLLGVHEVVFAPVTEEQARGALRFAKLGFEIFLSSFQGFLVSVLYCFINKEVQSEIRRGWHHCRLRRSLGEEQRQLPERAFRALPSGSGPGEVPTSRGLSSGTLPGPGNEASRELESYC
Put plainly: In vitro agonistic activity on GIPR (cAMP assay). It counts as cell-based. The following applies: CHO cell line; for Agonistic activity on GIPR Max Activity (%): Max Dose 20 nM. The method, then:
as §1, §2, §3, §4, §5, §6, §7, §8, §9, §10, §11, §12, §13, §14, §15, §16, §17

Data set [3] concerns mouse plasma albumin. Put plainly: Plasma protein binding (PPB), mouse. It counts as in vitro ADME. Also noted: key: NA indicates that the plasma protein binding is too high, and no free drug is detected at a normal plasma protein concentration. The following applies: ultracentrifugation. The method, then:
The binding degree of the assay compound to human/mouse plasma albumin was studied.
1. Matrix preparation: on the day of the assay, plasma was thawed in cold water and centrifuged at 3220 rpm for 5 min to remove all clots. The pH of the resulting plasma was measured and adjusted to 7.4±0.1 using 1% phosphoric acid or IN sodium hydroxide as needed.
2. Dilution procedure for the assay compound: the assay compound was dissolved in dimethyl sulfoxide (DMSO) to prepare stock solutions with concentrations of 10 mM and 2 mM, respectively. A 40 μM working solution was prepared by diluting 2 μL of stock solution (2 mM) with 98 μL of DMSO. A 400 μM working solution of the control compound was prepared by diluting 10 μL of stock solution with 240 μL of DMSO. The working solution of the compound (5 μL) was mixed well with a blank matrix (995 μL) at a ratio of 1:200 to prepare a loading matrix.
3.1 An equal volume of 30 μL of loading matrix (n=2) was transferred to a sample collection plate to prepare a time 0 (T0) sample for residue determination. […]
3.4 At the end of centrifugation, 30 μL of protein-free samples and 30 μL of T samples were transferred from the second layer of the supernatant (below the top layer) to a new sample collection plate. […] The mixture was centrifuged at 4000 rpm for 20 min and 100 μL of supernatant from each sample was analyzed by LC-MS/MS.

A short description of data set [4]: Pharmacokinetic evaluation in mice. The class given is in vivo. The following applies: mouse, plasma, 0.048 mg/kg, C57BL/6 mice, single SC 0.048 mpk; for half-life: read-out: Half-life T1/2 (converted); for AUC(0-t): read-out: Integral of the SC concentration AUC0-72 h; for Cmax: read-out: Maximum plasma concentration. Here is the method: Pharmacokinetics of the compound in C57BL/6 mice were assayed.
The pharmacokinetic characteristics of the compound in rodents after a subcutaneous injection were assayed using the standard protocol. In the assay, the candidate compound was formulated into a clear solution and given to mice by a single subcutaneous injection (SC, 0.048 mpk). The solvent of the subcutaneous injection was citrate buffer (20 mM, pH=7). Whole blood was collected, and plasma was prepared. Drug concentration was analyzed by LC-MS/MS method, and pharmacokinetic parameters were calculated using Phoenix WinNonlin software.

Data set [5] can be described thus: Pharmacokinetic evaluation in cynomolgus monkeys. The following applies: cynomolgus monkey, plasma, 0.02 mg/kg, single SC 0.02 mpk; for half-life: read-out: Half-life T1/2 (converted); for AUC(0-t): read-out: Integral of the SC concentration AUC0-240 h; for Cmax: read-out: Maximum plasma concentration. The class given is in vivo. The method, then:
Pharmacokinetics of the compound in cynomolgus monkeys were assayed.
The pharmacokinetic characteristics of the compound in mammals after a subcutaneous injection were assayed using the standard protocol. In the assay, the candidate compound was formulated into a clear solution and given to cynomolgus monkeys by a single subcutaneous injection (SC, 0.02 mpk). The solvent of the subcutaneous injection was citrate buffer (20 mM, pH=7). Whole blood was collected, and plasma was prepared. Drug concentration was analyzed by LC-MS/MS method, and pharmacokinetic parameters were calculated using Phoenix WinNonlin software.

T1 sequence (P47871 26-477, species assumed): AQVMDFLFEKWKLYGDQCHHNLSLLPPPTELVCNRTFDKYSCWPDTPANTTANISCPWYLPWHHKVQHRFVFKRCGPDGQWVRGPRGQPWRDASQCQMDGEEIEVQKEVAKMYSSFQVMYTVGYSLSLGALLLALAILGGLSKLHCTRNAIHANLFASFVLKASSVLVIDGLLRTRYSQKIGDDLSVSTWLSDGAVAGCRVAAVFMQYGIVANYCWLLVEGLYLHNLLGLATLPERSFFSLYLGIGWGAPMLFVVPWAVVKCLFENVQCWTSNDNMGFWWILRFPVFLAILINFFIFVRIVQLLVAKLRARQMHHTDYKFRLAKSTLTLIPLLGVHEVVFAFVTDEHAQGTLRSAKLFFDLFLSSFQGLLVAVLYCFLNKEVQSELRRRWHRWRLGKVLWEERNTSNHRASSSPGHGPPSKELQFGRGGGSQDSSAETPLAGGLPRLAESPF

With `CC(C)C[C@H](NC(=O)[C@H](CC(C)C)NC(=O)[C@H](Cc1c[nH]c2ccccc12)NC(=O)[C@H](CCC(=O)O)NC(=O)[C@@H](NC(=O)[C@H](Cc1ccccc1)NC(=O)[C@H](CCC(=O)O)NC(=O)[C@@H]1CCCCNC(=O)CN(C(=O)COCCOCCNC(=O)COCCOCCNC(=O)CC[C@H](NC(=O)CCCCCCCCCCCCCCCCCCC(=O)O)C(=O)O)CC(=O)NCCCC[C@H](NC(=O)[C@H](CCC(=O)O)NC(=O)[C@H](CC(=O)O)NC(=O)[C@H](CC(C)C)NC(=O)[C@H](Cc2ccc(O)cc2)NC(=O)[C@H](CCCCN)NC(=O)[C@H](CO)NC(=O)[C@H](Cc2ccc(O)cc2)NC(=O)[C@H](CC(=O)O)NC(=O)[C@H](CO)NC(=O)[C@@H](NC(=O)[C@H](Cc2ccccc2)NC(=O)[C@@H](NC(=O)CNC(=O)[C@H](CCC(N)=O)NC(=O)C(C)(C)NC(=O)[C@@H](N)Cc2c[nH]cn2)[C@@H](C)O)[C@@H](C)O)C(=O)N[C@@H](CCCCN)C(=O)N[C@@H](C)C(=O)N1)C(C)C)C(=O)N[C@@H](CCC(=O)O)C(=O)NCC(=O)NCC(=O)N1CCC[C@H]1C(=O)N[C@@H](CO)C(=O)N[C@@H](CO)C(=O)NCC(N)=O` [WX001], in data set [1], it took 0.0267 nM to reach a half-maximal effect (EC50) and the “Agonistic activity on GCGR Max Activity (%)” value is listed as 98.93%. For the same compound, in data set [2], the 50% effective concentration (EC50) is > 20 nM and the “Agonistic activity on GIPR Max Activity (%)” value was determined as 2.26%. Also, in data set [3], the “PPB % unbound (mouse)” value is “NA/NA”. Besides, in data set [4], the Tmax stood at 8 h, the half-life is 21 h, the AUC(0-t) was 1.81 µM·h and the Cmax came to 46 nM. For the same compound, in data set [5], the Tmax was 24 h, the half-life is 93 h, the AUC(0-t) amounted to 5.51 µM·h and the Cmax came to 43 nM.
Take `CC(C)C[C@H](NC(=O)[C@H](CC(C)C)NC(=O)[C@H](Cc1c[nH]c2ccccc12)NC(=O)[C@@H]1CCCCNC(=O)CN(C(=O)COCCOCCNC(=O)COCCOCCNC(=O)CC[C@H](NC(=O)CCCCCCCCCCCCCCCCCCC(=O)O)C(=O)O)CC(=O)NCCCC[C@H](NC(=O)[C@H](C)NC(=O)[C@H](CCCCN)NC(=O)[C@H](CCCCN)NC(=O)[C@H](CCC(=O)O)NC(=O)[C@H](CC(=O)O)NC(=O)[C@H](CC(C)C)NC(=O)[C@H](Cc2ccc(O)cc2)NC(=O)[C@H](CCCCN)NC(=O)[C@H](CO)NC(=O)[C@H](Cc2ccc(O)cc2)NC(=O)[C@H](CC(=O)O)NC(=O)[C@H](CO)NC(=O)[C@@H](NC(=O)[C@H](Cc2ccccc2)NC(=O)[C@@H](NC(=O)CNC(=O)[C@H](CCC(N)=O)NC(=O)C(C)(C)NC(=O)[C@@H](N)Cc2c[nH]cn2)[C@@H](C)O)[C@@H](C)O)C(=O)N[C@@H](CCC(=O)O)C(=O)N[C@@H](Cc2ccccc2)C(=O)N[C@@H](C(C)C)C(=O)N1)C(=O)N[C@@H](CCC(=O)O)C(=O)NCC(=O)NCC(=O)N1CCC[C@H]1C(=O)N[C@@H](CO)C(=O)N[C@@H](CO)C(=O)NCC(N)=O` [WX004]: in data set [1], the EC50 was 0.0531 nM and the “Agonistic activity on GCGR Max Activity (%)” value is 68.62%. In addition, in data set [2], the EC50 is > 20 nM and the “Agonistic activity on GIPR Max Activity (%)” value is reported as 4.12%. The “PPB % unbound (mouse)” value in data set [3] is “NA/NA”. Besides, in data set [4], the Tmax was found to be 12 h, the half-life was 22 h, the AUC(0-t) came out at 1.16 µM·h and the Cmax worked out at 36 nM. In data set [5], the time of peak concentration (Tmax) stood at 32 h, the half-life was 67 h, the AUC(0-t) was determined as 5.72 µM·h and the Cmax is 48 nM.
